Assay results: article PMC5218480 (PLoS ONE, 2017)

Tested on: MV-4-11 cells
Assay: Gene expression microarray analysis (Affymetrix PrimeView) and GSEA
Format: cell-based, human
Set-up: RFU PODN (11730768_x_at) / Fold change /veh PODN (11730768_x_at) / RFU LINC00158 (11744669_a_at) / Fold change /veh LINC00158 (11744669_a_at) / RFU DUSP10 (11751237_a_at) / Fold change /veh DUSP10 (11751237_a_at) / RFU ID3 (11757404_x_at) / Fold change /veh ID3 (11757404_x_at) / RFU PLEKHG5 (11737974_s_at) / Fold change /veh PLEKHG5 (11737974_s_at) / RFU LRRC4B (11730491_at) / Fold change /veh LRRC4B (11730491_at) / RFU GIMAP4 (11747438_a_at) / Fold change /veh GIMAP4 (11747438_a_at) / RFU KRT8 (11758183_x_at) / Fold change /veh KRT8 (11758183_x_at) / RFU CNN1 (11734310_a_at) / Fold change /veh CNN1 (11734310_a_at) / RFU VPS37D (11726825_at) / Fold change /veh VPS37D (11726825_at) / RFU C10orf10 (11716522_x_at) / Fold change /veh C10orf10 (11716522_x_at) / RFU KIR2DL2 /// KIR2DL4 /// KIR2DL5A /// KIR2DL5B /// KIR2DS1 /// KIR2DS2 /// KIR2DS3 /// KIR2DS4 /// KIR3DL3 /// KIR3DL3 /// KIR3DS1 (11738374_at) / Fold change /veh KIR2DL2 /// KIR2DL4 /// KIR2DL5A /// KIR2DL5B /// KIR2DS1 /// KIR2DS2 /// KIR2DS3 /// KIR2DS4 /// KIR3DL3 /// KIR3DL3 /// KIR3DS1 (11738374_at) / RFU C1QL1 (11718748_at) / Fold change /veh C1QL1 (11718748_at) / RFU TMPRSS4 (11747572_a_at) / Fold change /veh TMPRSS4 (11747572_a_at) / RFU HAMP (11756126_x_at) / Fold change /veh HAMP (11756126_x_at) / RFU RNFT2 (11725882_a_at) / Fold change /veh RNFT2 (11725882_a_at) / RFU NR4A2 (11747474_a_at) / Fold change /veh NR4A2 (11747474_a_at) / RFU ABCC12 (11746883_a_at) / Fold change /veh ABCC12 (11746883_a_at) / RFU TMEM136 (11760407_x_at) / Fold change /veh TMEM136 (11760407_x_at) / RFU CLDN22 /// WWC2 (11732394_at) / Fold change /veh CLDN22 /// WWC2 (11732394_at) / RFU HLA-DPB1 (11760878_x_at) / Fold change /veh HLA-DPB1 (11760878_x_at) / RFU SPINT1 (11716480_a_at) / Fold change /veh SPINT1 (11716480_a_at) / RFU GAP43 (11754022_s_at) / Fold change /veh GAP43 (11754022_s_at) / RFU A4GNT (11735810_at) / Fold change /veh A4GNT (11735810_at) / RFU PRB3 (11715151_x_at) / Fold change /veh PRB3 (11715151_x_at) / RFU TUBB4B (11761932_at) / Fold change /veh TUBB4B (11761932_at) / RFU CAPN14 (11732068_a_at) / Fold change /veh CAPN14 (11732068_a_at) / RFU TMCC2 (11721928_a_at) / Fold change /veh TMCC2 (11721928_a_at) / RFU IRGQ (11745062_a_at) / Fold change /veh IRGQ (11745062_a_at) / RFU FAM174B (11720279_a_at) / Fold change /veh FAM174B (11720279_a_at) / RFU TMPRSS4 (11748680_a_at) / Fold change /veh TMPRSS4 (11748680_a_at) / RFU FAM212B (11763350_a_at) / Fold change /veh FAM212B (11763350_a_at) / RFU PLEKHG5 (11743358_a_at) / Fold change /veh PLEKHG5 (11743358_a_at) / RFU ZSCAN30 (11745921_a_at) / Fold change /veh ZSCAN30 (11745921_a_at) / RFU CMKLR1 (11741424_a_at) / Fold change /veh CMKLR1 (11741424_a_at) / RFU LOC101060620 /// MAPK8IP1 (11723275_at) / Fold change /veh LOC101060620 /// MAPK8IP1 (11723275_at) / RFU SPTSSB (11747773_x_at) / Fold change /veh SPTSSB (11747773_x_at) / RFU PRSS12 (11739890_at) / Fold change /veh PRSS12 (11739890_at) / RFU BIN1 (11741810_x_at) / Fold change /veh BIN1 (11741810_x_at) / RFU WNT11 (11732464_a_at) / Fold change /veh WNT11 (11732464_a_at) / RFU C10orf10 (11716521_a_at) / Fold change /veh C10orf10 (11716521_a_at) / RFU C5orf56 (11738089_at) / Fold change /veh C5orf56 (11738089_at) / RFU CYB561 (11721691_x_at) / Fold change /veh CYB561 (11721691_x_at) / RFU ANKRD19P (11752326_a_at) / Fold change /veh ANKRD19P (11752326_a_at) / RFU OR2T12 /// OR2T33 /// OR2T8 (11738714_s_at) / Fold change /veh OR2T12 /// OR2T33 /// OR2T8 (11738714_s_at) / RFU VCAN (11748164_a_at) / Fold change /veh VCAN (11748164_a_at) / RFU JSRP1 (11732532_at) / Fold change /veh JSRP1 (11732532_at) / RFU KRTAP10-11 (11738290_x_at) / Fold change /veh KRTAP10-11 (11738290_x_at) / RFU MYO3A (11730013_a_at) / Fold change /veh MYO3A (11730013_a_at) / RFU EBF3 (11725865_a_at) / Fold change /veh EBF3 (11725865_a_at) / RFU CAMK2N1 (11719241_x_at) / Fold change /veh CAMK2N1 (11719241_x_at) / RFU C5orf56 (11738088_a_at) / Fold change /veh C5orf56 (11738088_a_at) / RFU OLFML3 (11715873_a_at) / Fold change /veh OLFML3 (11715873_a_at) / RFU LOC100653217 /// NTM (11731650_a_at) / Fold change /veh LOC100653217 /// NTM (11731650_a_at) / RFU MAPK11 (11762145_a_at) / Fold change /veh MAPK11 (11762145_a_at) / RFU FIZ1 (11724087_x_at) / Fold change /veh FIZ1 (11724087_x_at) / RFU OASL (11726364_x_at) / Fold change /veh OASL (11726364_x_at) / RFU SOX15 (11748057_x_at) / Fold change /veh SOX15 (11748057_x_at) / RFU CD79A (11719716_a_at) / Fold change /veh CD79A (11719716_a_at) / RFU HIST1H1D (11736915_at) / Fold change /veh HIST1H1D (11736915_at) / RFU CASKIN2 (11723855_a_at) / Fold change /veh CASKIN2 (11723855_a_at) / RFU LOC730098 (11760151_x_at) / Fold change /veh LOC730098 (11760151_x_at) / RFU OR4N2 (11742367_at) / Fold change /veh OR4N2 (11742367_at) / RFU PRRT2 (11749266_a_at) / Fold change /veh PRRT2 (11749266_a_at) / RFU SNX32 (11753110_a_at) / Fold change /veh SNX32 (11753110_a_at) / RFU CDHR5 (11726645_a_at) / Fold change /veh CDHR5 (11726645_a_at) / RFU RCAN1 (11760418_a_at) / Fold change /veh RCAN1 (11760418_a_at) / RFU FAM167A (11723789_a_at) / Fold change /veh FAM167A (11723789_a_at) / RFU FAM26E (11764081_at) / Fold change /veh FAM26E (11764081_at) / RFU ISYNA1 (11749810_s_at) / Fold change /veh ISYNA1 (11749810_s_at) / RFU ACY1 (11761880_at) / Fold change /veh ACY1 (11761880_at) / RFU 11764098_at / Fold change /veh 11764098_at / RFU SAMD14 (11745864_x_at) / Fold change /veh SAMD14 (11745864_x_at) / RFU NPB (11741838_a_at) / Fold change /veh NPB (11741838_a_at) / RFU TMPRSS6 (11731388_a_at) / Fold change /veh TMPRSS6 (11731388_a_at) / RFU KRTAP10-2 (11738614_at) / Fold change /veh KRTAP10-2 (11738614_at) / RFU ARHGAP8 /// PRR5-ARHGAP8 (11727945_x_at) / Fold change /veh ARHGAP8 /// PRR5-ARHGAP8 (11727945_x_at) / RFU KRTAP5-7 /// NADSYN1 (11734609_at) / Fold change /veh KRTAP5-7 /// NADSYN1 (11734609_at) / RFU RASL12 (11751679_a_at) / Fold change /veh RASL12 (11751679_a_at) / RFU CDKN2B (11736163_a_at) / Fold change /veh CDKN2B (11736163_a_at) / RFU PRF1 (11729649_at) / Fold change /veh PRF1 (11729649_at) / RFU, ZNF638 /// ZNF638-IT1 / Fold change vs veh, ZNF638 /// ZNF638-IT1 / RFU, PANK3 / Fold change vs veh, PANK3 / RFU, SH3YL1 / Fold change vs veh, SH3YL1 / RFU, ZEB2 / Fold change vs veh, ZEB2 / RFU, NRIP1 / Fold change vs veh, NRIP1 / RFU, PTTG1IP / Fold change vs veh, PTTG1IP / RFU, CAPN2 / Fold change vs veh, CAPN2 / RFU, MED14 / Fold change vs veh, MED14 / RFU, SNORA58 / Fold change vs veh, SNORA58 / RFU, C1orf63 / Fold change vs veh, C1orf63 / RFU, LRRFIP1 / Fold change vs veh, LRRFIP1 / RFU, NDUFAF7 / Fold change vs veh, NDUFAF7 / RFU, SLC12A2 / Fold change vs veh, SLC12A2 / RFU, IBTK / Fold change vs veh, IBTK / RFU, ESF1 / Fold change vs veh, ESF1 / Fold change vs veh, TMEM50B / RFU, TAOK1 / Fold change vs veh, TAOK1 / RFU, ACBD3 / Fold change vs veh, ACBD3 / RFU, TMA16 / Fold change vs veh, TMA16 / RFU, RWDD3 / Fold change vs veh, RWDD3 / RFU, BCAT1 / Fold change vs veh, BCAT1 / RFU, EDEM3 / Fold change vs veh, EDEM3 / RFU, TMEM33 / Fold change vs veh, TMEM33 / RFU, WDR75 / Fold change vs veh, WDR75 / RFU, AHCTF1 / Fold change vs veh, AHCTF1 / RFU, TFRC / Fold change vs veh, TFRC / RFU, ZDHHC17 / Fold change vs veh, ZDHHC17 / RFU, NOM1 / Fold change vs veh, NOM1 / RFU, ARL8B / Fold change vs veh, ARL8B / RFU, ZBTB11 / Fold change vs veh, ZBTB11 / RFU, TAMM41 / Fold change vs veh, TAMM41 / RFU, KIAA1704 /// LOC100996395 / Fold change vs veh, KIAA1704 /// LOC100996395 / RFU, ING1 / Fold change vs veh, ING1 / RFU, TRMT61B / Fold change vs veh, TRMT61B / RFU, FUBP3 / Fold change vs veh, FUBP3 / RFU, TP53 / Fold change vs veh, TP53 / RFU, TNKS2 / Fold change vs veh, TNKS2 / RFU, ZFP14 / Fold change vs veh, ZFP14 / RFU, ACTR2 / Fold change vs veh, ACTR2 / RFU, PPP3R1 / Fold change vs veh, PPP3R1 / RFU, PIK3R1 / Fold change vs veh, PIK3R1 / RFU, HNRNPA1 / Fold change vs veh, HNRNPA1 / RFU, RNF170 / Fold change vs veh, RNF170 / RFU, ZNF28 / Fold change vs veh, ZNF28 / RFU, RNGTT / Fold change vs veh, RNGTT / RFU, OGT / Fold change vs veh, OGT / RFU, BRD1 / Fold change vs veh, BRD1 / RFU, MARS / Fold change vs veh, MARS / RFU, ZNF655 / Fold change vs veh, ZNF655 / RFU, FAHD1 / Fold change vs veh, FAHD1 / RFU, BDP1 / Fold change vs veh, BDP1 / RFU, LRRCC1 / Fold change vs veh, LRRCC1 / RFU, ARID1A / Fold change vs veh, ARID1A / RFU, ZNF146 / Fold change vs veh, ZNF146 / RFU, ZNF330 / Fold change vs veh, ZNF330 / RFU, GPN3 / Fold change vs veh, GPN3 / RFU, C9orf123 / Fold change vs veh, C9orf123 / RFU, N4BP2L2 / Fold change vs veh, N4BP2L2 / RFU, ARFIP1 / Fold change vs veh, ARFIP1 / RFU, FAM179B / Fold change vs veh, FAM179B / RFU, BCL10 / Fold change vs veh, BCL10 / RFU, UHRF1BP1L / Fold change vs veh, UHRF1BP1L / RFU, BET1 / Fold change vs veh, BET1 / RFU, CNOT2 / Fold change vs veh, CNOT2 / RFU, ZNF268 / Fold change vs veh, ZNF268 / Fold change vs veh, ZNF507 / RFU, DGCR2 / Fold change vs veh, DGCR2 / RFU, WDSUB1 / Fold change vs veh, WDSUB1 / Fold change vs veh, HSP90B1 /// MIR3652 / RFU, ADSS / Fold change vs veh, ADSS / RFU, GK / Fold change vs veh, GK / RFU, ZNF148 / Fold change vs veh, ZNF148 / RFU, TAF9 / Fold change vs veh, TAF9 / RFU, SLC1A5 / Fold change vs veh, SLC1A5 / RFU, SLMO2 / Fold change vs veh, SLMO2 / RFU, ABCC4 / Fold change vs veh, ABCC4 / RFU, LOC101060439 /// RAP1B / Fold change vs veh, LOC101060439 /// RAP1B / RFU, RFX7 / Fold change vs veh, RFX7 / RFU, GTPBP10 / Fold change vs veh, GTPBP10 / RFU, CNEP1R1 / Fold change vs veh, CNEP1R1 / RFU, BIVM-ERCC5 /// ERCC5 / Fold change vs veh, BIVM-ERCC5 /// ERCC5 / RFU, ILF3 / Fold change vs veh, ILF3 / RFU 11762660_at / Fold change /veh 11762660_at / RFU VCAN (11757783_s_at) / Fold change /veh VCAN (11757783_s_at) / RFU DDX43 (11728927_at) / Fold change /veh DDX43 (11728927_at) / RFU KRT8 (11758188_x_at) / Fold change /veh KRT8 (11758188_x_at) / RFU NKD1 (11759106_at) / Fold change /veh NKD1 (11759106_at) / RFU SRD5A1 (11742802_a_at) / Fold change /veh SRD5A1 (11742802_a_at) / RFU TPSAB1 /// TPSB2 (11721975_s_at) / Fold change /veh TPSAB1 /// TPSB2 (11721975_s_at) / RFU GSTM3 (11746129_a_at) / Fold change /veh GSTM3 (11746129_a_at) / RFU IL23R (11737362_x_at) / Fold change /veh IL23R (11737362_x_at) / RFU TMEM51 (11727254_a_at) / Fold change /veh TMEM51 (11727254_a_at) / RFU PIWIL2 (11732686_x_at) / Fold change /veh PIWIL2 (11732686_x_at) / RFU ORM1 (11744905_x_at) / Fold change /veh ORM1 (11744905_x_at) / RFU CCDC152 (11743942_at) / Fold change /veh CCDC152 (11743942_at) / RFU ECM1 (11717891_a_at) / Fold change /veh ECM1 (11717891_a_at) / RFU IL23R (11748794_a_at) / Fold change /veh IL23R (11748794_a_at) / RFU TNFAIP8L3 (11732012_x_at) / Fold change /veh TNFAIP8L3 (11732012_x_at) / RFU MBOAT4 (11741988_at) / Fold change /veh MBOAT4 (11741988_at) / RFU 11764193_at / Fold change /veh 11764193_at / RFU TMEM53 (11763286_at) / Fold change /veh TMEM53 (11763286_at) / RFU MAGEB2 (11727129_at) / Fold change /veh MAGEB2 (11727129_at) / RFU TMEM200A (11744735_a_at) / Fold change /veh TMEM200A (11744735_a_at) / RFU CCDC152 (11751479_a_at) / Fold change /veh CCDC152 (11751479_a_at) / RFU FAM211A (11726209_a_at) / Fold change /veh FAM211A (11726209_a_at) / RFU RGS16 (11746705_a_at) / Fold change /veh RGS16 (11746705_a_at) / RFU VCAN (11755009_s_at) / Fold change /veh VCAN (11755009_s_at) / RFU RHOB (11743442_s_at) / Fold change /veh RHOB (11743442_s_at) / RFU RGS16 (11720943_a_at) / Fold change /veh RGS16 (11720943_a_at) / RFU RGS16 (11720944_at) / Fold change /veh RGS16 (11720944_at) / RFU, VPS4B / Fold change vs veh, VPS4B / RFU, CREB1 / Fold change vs veh, CREB1 / RFU, DNAJC13 / Fold change vs veh, DNAJC13 / RFU, GNAQ / Fold change vs veh, GNAQ / RFU, CDK5R1 / Fold change vs veh, CDK5R1 / RFU, ZRANB3 / Fold change vs veh, ZRANB3 / RFU, CUL4A / Fold change vs veh, CUL4A / RFU, CCNY / Fold change vs veh, CCNY / RFU, UFL1 / Fold change vs veh, UFL1 / RFU, COG3 / Fold change vs veh, COG3 / RFU, DIAPH2 / Fold change vs veh, DIAPH2 / RFU, SKA2 / Fold change vs veh, SKA2 / RFU, AFF3 / Fold change vs veh, AFF3 / RFU, LMF1 / Fold change vs veh, LMF1 / RFU, IPO11 / Fold change vs veh, IPO11 / RFU, DFFB / Fold change vs veh, DFFB / RFU, FOXP1 / Fold change vs veh, FOXP1 / RFU, CARD8 / Fold change vs veh, CARD8 / RFU, STRN3 / Fold change vs veh, STRN3 / RFU, ADK / Fold change vs veh, ADK / RFU, RASSF2 / Fold change vs veh, RASSF2 / RFU, WIPF1 / Fold change vs veh, WIPF1 / RFU, LARP1B / Fold change vs veh, LARP1B / RFU, RASA1 / Fold change vs veh, RASA1 / RFU, RB1 / Fold change vs veh, RB1 / RFU, PPFIA1 / Fold change vs veh, PPFIA1 / RFU, MAT2A / Fold change vs veh, MAT2A / RFU, CCT5 / Fold change vs veh, CCT5 / RFU, WDR92 / Fold change vs veh, WDR92 / RFU, CUX1 / Fold change vs veh, CUX1 / RFU, TTC7A / Fold change vs veh, TTC7A / RFU, TMEM135 / Fold change vs veh, TMEM135 / RFU, DEPTOR / Fold change vs veh, DEPTOR / RFU, CPM / Fold change vs veh, CPM / RFU, DNAJB6 / Fold change vs veh, DNAJB6 / RFU, CACNA2D3 / Fold change vs veh, CACNA2D3 / RFU, DTX4 / Fold change vs veh, DTX4 / RFU, TFCP2 / Fold change vs veh, TFCP2 / RFU, GMCL1 /// GMCL1P1 / Fold change vs veh, GMCL1 /// GMCL1P1 / RFU, AEBP2 / Fold change vs veh, AEBP2 / RFU, SNHG1 /// SNORD22 /// SNORD25 /// SNORD26 /// SNORD27 /// SNORD28 /// SNORD29 /// SNORD31 / Fold change vs veh, SNHG1 /// SNORD22 /// SNORD25 /// SNORD26 /// SNORD27 /// SNORD28 /// SNORD29 /// SNORD31 / Fold change (Aza/veh), C12orf56 (ProbeSet 11735607_a_at) / Fold change (ACY-1035/veh), C12orf56 (ProbeSet 11735607_a_at) / Fold change (Aza/veh), FGFR1OP (ProbeSet 11751329_s_at) / Fold change (ACY-1035/veh), FGFR1OP (ProbeSet 11751329_s_at) / Fold change (Aza/veh), VPS36 (ProbeSet 11739960_a_at) / Fold change (ACY-1035/veh), VPS36 (ProbeSet 11739960_a_at) / RFU SYPL1 (11715823_x_at) / Fold change /veh SYPL1 (11715823_x_at) / RFU IGFBP7 (11715501_s_at) / Fold change /veh IGFBP7 (11715501_s_at) / RFU REEP3 (11722064_at) / Fold change /veh REEP3 (11722064_at) / RFU IGLL1 (11728026_x_at) / Fold change /veh IGLL1 (11728026_x_at): dose or concentration left out as unconfirmed
Conditions: MV-4-11 cells, 48 hours

## Nc1ccc(-c2cccs2)cc1NC(=O)c1ccc2c(c1)cc(C1CC1)n2CCN1CCOCC1 [ACY-1035]
  Fold change /veh C10orf10 (11716521_a_at): 0.91
